# Test results from ChEMBL document CHEMBL5678805, “Intermittent administration of MEK inhibitor GDC-0973 plus PI3K inhibitor GDC-0941 triggers robust apoptosis and tumor growth inhibition” (Cancer Res, 2012).
# The source made the active and inactive calls. No cut-off for these calls is given here.
# Assays:
# [1] = system: A2058; test: Antitumor activity against human A2058 cells harboring BRAF V600E/PTEN deletion mutant xenografted in mouse assessed as decrease in tumor volume at 10 mg/kg, po administered once weekly for 21 days in presence of GDC-0973 by digital calipers analysis; type: functional, organism-based; details: time 21.0 day
# [2] = system: A2058; test: Antitumor activity against human A2058 cells harboring BRAF V600E/PTEN deletion mutant xenografted in mouse assessed as decrease in tumor volume at 1.5 mg/kg, po administered once daily for 21 days in presence of GDC-0973 by digital calipers analysis; type: functional, organism-based; details: time 21.0 day
# [3] = system: DLD-1; test: Antitumor activity against human DLD-1 cells xenografted in mouse assessed as tumor growth inhibition at 30 mg/kg, po administered once a day for 21 days; type: functional; details: DLD-1, 504 h, time 21 day, read-out: TGI
# [4] = system: A2058; test: Antitumor activity against human A2058 cells xenografted in mouse assessed as tumor growth inhibition at 30 mg/kg, po administered once a day for 21 days; type: functional; details: A2058, 504 h, time 21 day, read-out: TGI
# [5] = system: A2058; test: Antitumor activity against human A2058 cells xenografted in mouse assessed as tumor growth inhibition at 30 mg/kg, po administered once a day for 21 days in presence of (S)-(3,4-difluoro-2-((2-fluoro-4-iodophenyl)amino)phenyl)(3-hydroxy-3-(piperidin-2-yl)azetidin-1-yl)methanone; type: functional; details: A2058, 504 h, time 21 day, read-out: TGI
# [6] = system: NCI-H2122; test: Antitumor activity against human NCI-H2122 cells xenografted in mouse assessed as tumor growth inhibition at 150 mg/kg, po administered […] for 21 days; type: functional; details: NCI-H2122, 504 h, time 21 day, read-out: TGI
# [7] = system: NCI-H2122; test: Antitumor activity against human NCI-H2122 cells xenografted in mouse assessed as tumor growth inhibition at 150 mg/kg, po administered […] for 21 days in presence of (S)-(3,4-difluoro-2-((2-fluoro-4-iodophenyl)amino)phenyl)(3-hydroxy-3-(piperidin-2-yl)azetidin-1-yl)methanone; type: functional; details: NCI-H2122, 504 h, time 21 day, read-out: TGI
# [8] = Antitumor activity against human A375.X1 cells xenografted in mouse assessed as tumor growth inhibition at 30 mg/kg, po administered once a day for 21 days; type: functional; details: A375.X1, 504 h, time 21 day, read-out: TGI
# [9] = system: NCI-H2122; test: Antitumor activity against human NCI-H2122 cells xenografted in mouse assessed as tumor growth inhibition at 30 mg/kg, po administered once a day for 21 days; type: functional; details: NCI-H2122, 504 h, time 21 day, read-out: TGI
# [10] = system: NCI-H2122; test: Antitumor activity against human NCI-H2122 cells xenografted in mouse assessed as tumor growth inhibition at 100 mg/kg, po administered once a day for 21 days; type: functional; details: NCI-H2122, 504 h, time 21 day, read-out: TGI
# [11] = Antitumor activity against human A375.X1 cells xenografted in mouse assessed as tumor growth inhibition at 150 mg/kg, po administered every third day for 21 days; type: functional; details: A375.X1, 504 h, time 21 day, read-out: TGI
# [12] = system: NCI-H2122; test: Antitumor activity against human NCI-H2122 cells xenografted in mouse assessed as tumor growth inhibition at 100 mg/kg, po administered once a day for 21 days in presence of (S)-(3,4-difluoro-2-((2-fluoro-4-iodophenyl)amino)phenyl)(3-hydroxy-3-(piperidin-2-yl)azetidin-1-yl)methanone; type: functional; details: NCI-H2122, 504 h, time 21 day, read-out: TGI
# [13] = Antitumor activity against human A375.X1 cells xenografted in mouse assessed as tumor growth inhibition at 100 mg/kg, po administered once a day for 21 days in presence of (S)-(3,4-difluoro-2-((2-fluoro-4-iodophenyl)amino)phenyl)(3-hydroxy-3-(piperidin-2-yl)azetidin-1-yl)methanone; type: functional; details: A375.X1, 504 h, time 21 day, read-out: TGI
# [14] = system: A2058; test: Antitumor activity against human A2058 cells xenografted in mouse assessed as tumor growth inhibition at 100 mg/kg, po administered once a day for 21 days; type: functional; details: A2058, 504 h, time 21 day, read-out: TGI
# [15] = system: DLD-1; test: Antitumor activity against human DLD-1 cells xenografted in mouse assessed as tumor growth inhibition at 50 mg/kg, po administered every third day for 21 days in presence of (S)-(3,4-difluoro-2-((2-fluoro-4-iodophenyl)amino)phenyl)(3-hydroxy-3-(piperidin-2-yl)azetidin-1-yl)methanone; type: functional; details: DLD-1, 504 h, time 21 day, read-out: TGI
# [16] = Antitumor activity against human A375.X1 cells xenografted in mouse assessed as tumor growth inhibition at 100 mg/kg, po administered once a day for 21 days; type: functional; details: A375.X1, 504 h, time 21 day, read-out: TGI
# [17] = system: DLD-1; test: Antitumor activity against human DLD-1 cells xenografted in mouse assessed as tumor growth inhibition at 30 mg/kg, po administered once a day for 21 days in presence of (S)-(3,4-difluoro-2-((2-fluoro-4-iodophenyl)amino)phenyl)(3-hydroxy-3-(piperidin-2-yl)azetidin-1-yl)methanone; type: functional; details: DLD-1, 504 h, time 21 day, read-out: TGI
# [18] = Antitumor activity against human A375.X1 cells xenografted in mouse assessed as tumor growth inhibition at 30 mg/kg, po administered once a day for 21 days in presence of (S)-(3,4-difluoro-2-((2-fluoro-4-iodophenyl)amino)phenyl)(3-hydroxy-3-(piperidin-2-yl)azetidin-1-yl)methanone; type: functional; details: A375.X1, 504 h, time 21 day, read-out: TGI
# [19] = system: DLD-1; test: Antitumor activity against human DLD-1 cells xenografted in mouse assessed as tumor growth inhibition at 50 mg/kg, po administered every third day for 21 days; type: functional; details: DLD-1, 504 h, time 21 day, read-out: TGI
# [20] = system: NCI-H2122; test: Antitumor activity against human NCI-H2122 cells xenografted in mouse assessed as tumor growth inhibition at 30 mg/kg, po administered once a day for 21 days in presence of (S)-(3,4-difluoro-2-((2-fluoro-4-iodophenyl)amino)phenyl)(3-hydroxy-3-(piperidin-2-yl)azetidin-1-yl)methanone; type: functional; details: NCI-H2122, 504 h, time 21 day, read-out: TGI
# [21] = Antitumor activity against human A375.X1 cells xenografted in mouse assessed as tumor growth inhibition at 150 mg/kg, po administered every third day for 21 days in presence of (S)-(3,4-difluoro-2-((2-fluoro-4-iodophenyl)amino)phenyl)(3-hydroxy-3-(piperidin-2-yl)azetidin-1-yl)methanone; type: functional; details: A375.X1, 504 h, time 21 day, read-out: TGI
# [22] = system: A2058; test: Antitumor activity against human A2058 cells xenografted in mouse assessed as tumor growth inhibition at 150 mg/kg, po administered every third day for 21 days; type: functional; details: A2058, 504 h, time 21 day, read-out: TGI
structure (smiles),measurement,setting,value
Cc1c(CN2CCN(C(=O)[C@H](C)O)CC2)sc2c(N3CCOCC3)nc(-c3cnc(N)nc3)nc12,Activity,[1],Active
same,Activity,[2],Active
CS(=O)(=O)N1CCN(Cc2cc3nc(-c4cccc5[nH]ncc45)nc(N4CCOCC4)c3s2)CC1 [PICTILISIB],inhibition in vivo at 30 mg/kg,[3],63%
same,inhibition in vivo at 30 mg/kg,[4],24%
same,inhibition in vivo at 30 mg/kg,[5],73%
same,inhibition in vivo at 150 mg/kg,[6],43%
same,inhibition in vivo at 150 mg/kg,[7],87%
same,inhibition in vivo at 30 mg/kg,[8],23%
same,inhibition in vivo at 30 mg/kg,[9],63%
same,inhibition in vivo at 100 mg/kg,[10],91%
same,inhibition in vivo at 150 mg/kg,[11],57%
same,inhibition in vivo at 100 mg/kg,[12],156%
same,inhibition in vivo at 100 mg/kg,[13],122%
same,inhibition in vivo at 100 mg/kg,[14],58%
same,inhibition in vivo at 50 mg/kg,[15],72%
same,inhibition in vivo at 100 mg/kg,[16],-2%
same,inhibition in vivo at 30 mg/kg,[17],88%
same,inhibition in vivo at 30 mg/kg,[18],69%
same,inhibition in vivo at 50 mg/kg,[19],13%
same,inhibition in vivo at 30 mg/kg,[20],75%
same,inhibition in vivo at 150 mg/kg,[21],118%
same,inhibition in vivo at 150 mg/kg,[22],50%
